Measurements: patent US12427125B2 (priority 2020, dated 2025)
Read-outs that look alike come from different tables or passages of the source.

How the values were obtained:
female CD-1 mice [1] = tested on: female CD-1 mice
CD-1 mice = conditions: for Tolerability: mouse, in vivo
[2] = tested on: adult patients infected by SARS-CoV-19 (COVID-19); conditions: oral DA 30, 60 or 100 mg/kg BID for up to ten days; paper example
female CD-1 mice [3] = conditions: for BALF Protein Concentration Mean / BALF Protein Conc. Mean / Total Neutrophil Count per Lavage, Mean: group mean
Procedure: The protocols obtained 30 or 18 female CD-1 mice (Charles River Lab) and monitored daily for body condition and health status during the 3-5 days acclimation period.
At time 0, the mice were weighed. LPS was prepared 1 mg LPS in 1 ml phosphate buffered saline (PBS) to get a final concentration of 1 mg/mL. Dosed 50 μl intratracheally to the mice at time 0. For the N=30 or 18 mice in an incubator, temperature was set to achieve a core temperature of 39° C. as measured by a calibrated thermometer inserted through the top lid of the incubator with the bulb at the level of the mouse cages in the incubator (set temperature knob at 36.7° C.). In addition, a rectal probe to confirmed core temperature in the mice (check right before sacrifice at 24 h post LPS). All mice were given access to food and water at all time. Treatment was initiated three days prior to LPS dosing.
For anesthesia and LPS Dosing, mice were placed in a bell jar, with isoflurane-soaked gauze separated from the mouse by a screen and keep within a scrubber (so the operator isn't anesthetized). Monitored respiratory rate of each mouse and when reduced by half (usually within 5 seconds of going down), then take the mouse out. Each mouse was suspended from incisors across a string tied between two screws on a Plexiglas board and kept at about 70 degrees. Using blunt forceps, grabbed the tongue and hold extended, then instill 50 μL of the LPS solution into the oropharynx using a PennCentury needle/areosolizer. […] Mouse kept in this position for 5-10 seconds to allow distribution of the LPS, then returned to their cage.
Bronchoalveolar lavage fluid (BALF) was collected using rounded tip scissors make a vertical incision though skin but not peritoneum from the lower abdomen up to the jaw. Using two forceps grabbed the edge of the skin and pull apart to get wide exposure to underlying peritoneum and thoracic connective tissue/muscle. Using forceps, picked up peritoneum near the mid abdomen and with rounded tip scissors made a small incision in the peritoneum (avoid cutting gut). Then, while holding the upper edge of the peritoneum, used the rounded tip scissors to extend the incision diagonally to the left upper and right upper quadrants. Moved the liver and intestines out of the way so you can see the underside of the diaphragms. Using the rounded tip scissors, nibbled up toward the diaphragm until you can see the lungs on the other side pull away. Repeated on the other side, being careful to not nick the lungs or else you will not be able to recover lavage. Using the rounded tip scissors, cut through the diaphragm where it inserts on the anterior chest wall. Using the rounded tip scissors and taking care to avoid nicking the lung by moving it away with blunt forceps, cut through the chest wall laterally on both sides until you reach the top of the thorax, then cut across the midline at the top to remove the anterior chest wall. Using forceps pull upward on the heart and cut through at its base to remove. Using the rounded tip scissors, remove the fat pads overlying the trachea taking care not to nick the trachea. Using the rounded tip scissors inserted next to the trachea from the top of the thoracic cavity and kept next to and parallel to the trachea, make a single cut, which allowed removal of the rest of the soft tissue from the trachea but pulling over to the other side and carefully trimming to avoid nicking the trachea. Using sharp forceps carefully placed posterior to the trachea pull suture behind the trachea about 4-5 mm below the cricoid and made a very loose surgical knot (two loops around). Using ophthalmic scissors, very carefully made a cut through the anterior half of the trachea just below the cricoid. Inserted a short blunt needle into tracheal so the tip extended about 5-6 mm below the cricoid and tied a suture tightly with a second knot.

In the case of CC(=O)[O-].CC[N+](CC)(CC(=O)Nc1c(C)cccc1C)Cc1ccccc1 [DA, Denatonium acetate], the “Mice found dead on Day 1 (within 24 h after LPS instillation)” value (female CD-1 mice [1]; mouse, in vivo) is reported as “one”, the Tolerability (female CD-1 mice [1]; mouse, in vivo, ip, 3 mg/kg) is reported as “well-tolerated” and the Tolerability (female CD-1 mice [1]; mouse, in vivo, po, 92.4 mg/kg) is reported as “well-tolerated”. The “Other adverse clinical observations” value (female CD-1 mice [1]; second study, during 3 days of test article administration) was “No other adverse clinical observations were noted”, the “Other adverse clinical observations” value (CD-1 mice; first study, during 3 days of test article administration) was “No other adverse clinical observations were noted” and the Tolerability (CD-1 mice; iv, 3 mg/kg) was “well-tolerated”. For the same compound, the Tolerability (CD-1 mice; po, 92.4 mg/kg) was “well-tolerated”, the “Decrease in adult respiratory distress syndrome (ARDS), including chronic pulmonary function, diffusion capacity and lung compliance” value [2] was at least 20% and the Decrease in mortality [2] was about 40%. The Patient tolerance [2] was “adequate patient tolerance”, the “BALF Protein Concentration Mean” value (female CD-1 mice [3]; first study, DA 3 mg/kg IV QD) was 0.638 mg/mL and the “BALF Protein Concentration Mean” value (female CD-1 mice [3]; first study, DA 92.4 mg/kg PO BID) was 0.428 mg/mL. For the same compound, the “Effect on BALF protein concentration, in words” value (female CD-1 mice [3]; first study, PO 92.4 mg/kg BID compared with iv 3 mg/kg QD, Table 3, FIG. 1) was “Only oral administration was effective”, the “BALF Protein Conc. Mean” value (female CD-1 mice [3]; second study, DA 3 mg/kg IP QD) was 0.727 mg/mL and the “Total Neutrophil Count per Lavage, Mean” value (female CD-1 mice [3]; second study, DA 3 mg/kg IP) was 610,900. For the same compound, the “BALF Protein Conc. Mean” value (female CD-1 mice [3]; second study, DA 92.4 mg/kg PO BID) was 0.986 mg/mL, the “Total Neutrophil Count per Lavage, Mean” value (female CD-1 mice [3]; second study, DA 92.4 mg/kg PO) was 535,080 and the “Effect on BALF total neutrophil count, in words” value (female CD-1 mice [3]; second study, PO 92.4 mg/kg compared with ip 3 mg/kg, Table 5, FIG. 2) was “Only oral administration was effective”. For the same compound, the “Changes in BALF protein concentrations, in words” value (female CD-1 mice [3]; second study, oral and IP dosing, Table 4) was “nominal (but non-significant) changes”.
